# Source: US8258151B2, “3-aminoimidazo [1,2-A] pyridine derivatives as SGLT inhibitors” (Merck Patent GmbH, priority 2006, dated 2012)
# How the values were obtained:
# SGLT2 = target: T1, SGLT2 (Homo sapiens, UniProt P31639); assay: SGLT2 activity measurement: 14C-AMG uptake in BHK cells transfected with SGLT2; type: cell-based; conditions: AMG 2 mM, 37° C., 90 min
# T1 construct: expressed in transfected cells
# T1 sequence (P31639 1-672): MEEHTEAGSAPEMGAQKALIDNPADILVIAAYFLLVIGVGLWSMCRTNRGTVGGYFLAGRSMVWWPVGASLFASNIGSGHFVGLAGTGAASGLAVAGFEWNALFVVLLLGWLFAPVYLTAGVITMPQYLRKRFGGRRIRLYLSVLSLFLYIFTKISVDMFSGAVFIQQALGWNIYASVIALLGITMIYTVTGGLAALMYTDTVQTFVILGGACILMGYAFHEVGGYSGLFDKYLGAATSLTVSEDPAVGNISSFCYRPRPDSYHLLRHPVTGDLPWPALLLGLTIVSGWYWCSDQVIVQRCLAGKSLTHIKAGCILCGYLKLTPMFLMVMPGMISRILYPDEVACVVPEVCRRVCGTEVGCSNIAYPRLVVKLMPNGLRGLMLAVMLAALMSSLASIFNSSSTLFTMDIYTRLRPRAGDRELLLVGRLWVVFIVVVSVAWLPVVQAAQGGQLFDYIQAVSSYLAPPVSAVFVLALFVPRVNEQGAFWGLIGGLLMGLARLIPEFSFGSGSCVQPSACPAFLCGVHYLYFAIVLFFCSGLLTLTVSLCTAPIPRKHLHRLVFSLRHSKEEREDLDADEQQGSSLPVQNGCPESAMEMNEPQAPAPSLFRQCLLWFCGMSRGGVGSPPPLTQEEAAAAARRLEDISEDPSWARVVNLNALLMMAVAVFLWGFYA
# From the text: (§1) The compounds can be tested on their SGLT inhibition properties by means of BHK cells expressing SGLT1 and SGLT2. The production of the cells and the testing can be carried out as described below.
# To construct the SGLT2 expression vector (KL224), the SLC5A2 gene (homologous to NM_003041) was amplified from a cDNA library using standard PCR technology and cloned over NheI/XhoI sites into PCI-neo expression vector (Promega) containing neomycin as a selection marker. In this vector, transcription used the enhancer/promoter of human cytomegalovirus and the SV40 polyadenylation signal.
# (§2) The final vector KL224 together with an additional vector containing a dihydrofolate reductase gene as a selection marker was introduced into cells. Transfection into BHK21 cells (ATCC CCL-10), cultivated in DMEM medium (GIBCO/BRL), supplemented with 10% foetal calf serum (FCS) and 20 mM glutamine, was carried out using calcium phosphate transfections according to Graham, F. L. and van der Ebb, A. J. (1973), Virology 52: 456 with 5-20 μg of uncut plasmids for 10^7 cells. Stable transfectants were selected in medium containing 1 mg/ml of G418 (GIBCO/BRL) and 20-5000 nM methotrexate as final concentration, where only cells which expressed the neomycin gene and overexpressed the dhfr gene were able to grow. After growth for 2-3 weeks, the cells were cloned (0.5 cells/well) and the clones were investigated for SGLT expression in the radioactive uptake assay.
# Principally, uptake of ^14C-α-methyl-D-glucopyranoside (AMG) in, for example, Xenopus oocytes injected with the corresponding cRNA has been described (for example Wen-Sen Lee et al. (1994), J. Biol. Chem. 269, 12032-12039; Guofeng You et al. (1995), J. Biol. Chem. 270, 29365-29371).
# (§3) A 96-well cell-based assay was developed and adapted to HTS requirements:
# (§4) BHK cells (transfected with SGLT1 or SGLT2) were seeded into 96-well microtitre plates (Cultureplates, Perkin Elmer). After at least 24 h, medium was removed and the cell layer was washed with assay buffer (140 mM NaCl, 2 mM KCl, 1 mM CaCl2, 1 mM MgCl2, 10 mM HEPES, 5 mM Tris, adjusted with 1 M KOH to pH 7.4). After addition of 40 μl of assay buffer, 50 μl of AMG (50 μM for SGLT1 and 2 mM for SGLT2) in the presence or absence of compounds, the cells were incubated in a total volume of 100 μl at 37° C. for 90 min. Supernatant was removed by suction and discarded. The cells were washed and lysed by addition of 50 μl water. After 10 minutes at room temperature 200 μl Microscint 40 (Perkin Elmer) were added. The radioactivity was counted in a Topcount microplate scintillation counter (Perkin Elmer). The non-specific uptake was determined in sodium-free assay buffer (266 mM sucrose, 2 mM KCl, 1 mM CaCl2, 1 mM MgCl2, 10 mM HEPES, 5 mM Tris, adjusted with 1 M KOH to pH 7.4).
# SGLT1 = target: T2, SGLT1 (Homo sapiens, UniProt P13866); assay: SGLT1 activity measurement: 14C-AMG uptake in BHK cells transfected with SGLT1; type: cell-based; conditions: AMG 50 μM, 37° C., 90 min
# T2 construct: expressed in transfected cells
# T2 sequence (P13866 1-664): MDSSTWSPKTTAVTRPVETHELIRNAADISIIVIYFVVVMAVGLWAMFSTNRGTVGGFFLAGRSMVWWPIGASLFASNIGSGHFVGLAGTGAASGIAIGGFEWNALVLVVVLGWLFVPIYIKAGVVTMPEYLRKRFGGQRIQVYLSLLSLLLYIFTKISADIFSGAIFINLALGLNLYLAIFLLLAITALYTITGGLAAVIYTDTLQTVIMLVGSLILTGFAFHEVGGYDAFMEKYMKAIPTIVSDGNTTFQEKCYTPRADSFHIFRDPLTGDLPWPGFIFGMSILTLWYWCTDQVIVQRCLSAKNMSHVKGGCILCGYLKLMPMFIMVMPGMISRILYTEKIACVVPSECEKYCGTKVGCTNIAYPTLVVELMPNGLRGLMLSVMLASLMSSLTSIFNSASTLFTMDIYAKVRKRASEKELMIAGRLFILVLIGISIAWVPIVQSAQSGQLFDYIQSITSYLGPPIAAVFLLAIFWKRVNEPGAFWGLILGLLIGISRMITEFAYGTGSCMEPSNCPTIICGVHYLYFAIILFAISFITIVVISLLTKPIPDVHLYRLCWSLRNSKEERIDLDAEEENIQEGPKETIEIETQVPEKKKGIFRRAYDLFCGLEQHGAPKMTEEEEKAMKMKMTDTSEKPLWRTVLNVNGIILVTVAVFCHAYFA
# From the text: as §1
# To construct the SGLT1 expression vector (KL225), the SLC5A1 gene (homologous to NM_000343) was amplified from a cDNA library using standard PCR technology and cloned over NheI/XhoI sites into pcDNA3.1 expression vector (Invitrogen) containing neomycin as a selection marker. In this vector, transcription uses the enhancer/promoter of human cytomegalovirus.
# as §2, with “KL225” for “KL224”, “assay. […]” for “assay.”
# as §3, §4
Structure (SMILES),IC50 (SGLT2),IC50 (SGLT1)
"COc1ccc(-c2nc3ccccn3c2Nc2c(C)cccc2C)c(OCC(N)=O)c1 [Compound A14, 2-[2-(Aminocarbonylmethoxy)-4-methoxy-phenyl]-3-(2,6-dimethylphenylamino)imidazo-[1,2-a]pyridine]",0.01 to 1 µM,> 10 µM
"CCc1cc(OC)cc(OCC(N)=O)c1-c1nc2ccc(F)cn2c1Nc1c(F)cccc1F [Compound A220, 2-[2-(Aminocarbonylmethoxy)-4-methoxy-6-ethylphenyl]-3-(2,6-difluorophenylamino)-6-fluoroimidazo[1,2-a]pyridine]",0.01 to 1 µM,1 to 10 µM
"CCc1cc(OC)cc(OCC(N)=O)c1-c1nc2c(N)cccn2c1Nc1c(C)cccc1C [Compound A192, 2-[2-(Aminocarbonylmethoxy)-4-methoxy-6-ethylphenyl]-3-(2,6-dimethylphenylamino)-8-aminoimidazo[1,2-a]pyridine]",0.01 to 1 µM,> 10 µM
"COc1cc(C)c(-c2nc3ccc(F)cn3c2Nc2c(F)cc(Br)cc2F)c(OCC(N)=O)c1 [Compound A252, 2-[2-(Aminocarbonylmethoxy)-4-methoxy-6-methylphenyl]-3-(2,6-difluoro-4-bromophenyl-amino)-6-fluoroimidazo[1,2-a]pyridine]",1 to 10 µM,1 to 10 µM
"Cc1cc(C)c(-c2nc3ccc(F)cn3c2Nc2c(C)cccc2C)c(OCC(N)=O)c1 [Compound A169, 2-[2-(Aminocarbonylmethoxy)-4,6-dimethyl-phenyl]-3-(2,6-dimethylphenylamino)-6-fluoro-imidazo[1,2-a]pyridine]",0.01 to 1 µM,1 to 10 µM
"Cc1cccc(C)c1Nc1c(-c2c(C)cc(OCc3ccccc3)cc2OCC(N)=O)nc2ccccn12 [Compound A173, 2-[2-(Aminocarbonylmethoxy)-4-benzyloxy-6-methylphenyl]-3-(2,6-dimethylphenylamino)-imidazo[1,2-a]pyridine]",> 10 µM,> 10 µM
"Cc1cccc(C)c1Nc1c(-c2ccccc2OCC(N)=O)nc2ccccn12 [Compound A4, 2-[2-(Aminocarbonylmethoxy)phenyl]-3-(2,6-di-methylphenylamino)imidazo[1,2-a]pyridine]",0.01 to 1 µM,> 10 µM
"Cc1cccc(C)c1Nc1c(-c2c(C)cc(OCC(N)=O)cc2OCC(N)=O)nc2ccccn12 [Compound A170, 2-[2-(Aminocarbonylmethoxy)-4-(amino-carbonylmethoxy)-6-methylphenyl]-3-(2,6-dimethylphenylamino)imidazo[1,2-a]pyridine]",0.01 to 1 µM,1 to 10 µM
"CCc1cc(OC)cc(OCC(N)=O)c1-c1nc2ccc(F)cn2c1Nc1c(C)cc(C(=O)OC)cc1C [Compound A245, 2-[2-(Aminocarbonylmethoxy)-4-methoxy-6-ethylphenyl]-3-(2,6-dimethyl-4-methoxycarbonyl-phenylamino)-6-fluoroimidazo[1,2-a]pyridine]",1 to 10 µM,> 10 µM
"COc1cc(C)c(-c2nc3ccc(F)cn3c2Nc2c(C)ccc(Cl)c2C)c(OCC(N)=O)c1 [Compound A218, 2-[2-(Aminocarbonylmethoxy)-4-methoxy-6-methylphenyl]-3-(3-chloro-2,6-dimethylphenyl-amino)-6-fluoroimidazo[1,2-a]pyridine]",0.01 to 1 µM,1 to 10 µM
"COc1ccc(-c2nc3ccc(F)cn3c2Nc2c(C)cc(F)cc2C)c(OCC(N)=O)c1 [Compound A212, 2-[2-(Aminocarbonylmethoxy)-4-methoxy-phenyl]-3-(2,6-dimethyl-4-fluorophenylamino)-6-fluoroimidazo[1,2-a]pyridine]",0.01 to 1 µM,> 10 µM
"CCc1cc(OC)cc(OCC(N)=O)c1-c1nc2ccc(F)cn2c1Nc1c(C)cccc1OC [Compound A215, 2-[2-(Aminocarbonylmethoxy)-4-methoxy-6-ethylphenyl]-3-(2-methoxy-6-methylphenyl-amino)-6-fluoroimidazo[1,2-a]pyridine]",0.01 to 1 µM,> 10 µM
"Cc1ccc(-c2nc3ccccn3c2Nc2c(C)cccc2C)c(OCC(N)=O)c1 [Compound A17, 2-[2-(Aminocarbonylmethoxy)-4-methylphenyl]-3-(2,6-dimethylphenylamino)-imidazo[1,2-a]-pyridine]",0.01 to 1 µM,> 10 µM
"COc1cc(C)c(-c2nc3ccc(F)cn3c2Nc2c(F)cccc2C(F)(F)F)c(OCC(N)=O)c1 [Compound A242, 2-[2-(Aminocarbonylmethoxy)-4-methoxy-6-methylphenyl]-3-(2-fluoro-6-trifluoromethyl-phenylamino)-6-fluoroimidazo[1,2-a]pyridine]",0.01 to 1 µM,1 to 10 µM
"COc1cc(C)c(-c2nc3c(F)cc(F)cn3c2Nc2c(C)cc(F)cc2C)c(OCC(N)=O)c1 [Compound A251, 2-[2-(Aminocarbonylmethoxy)-4-methoxy-6-methylphenyl]-3-(2,6-dimethyl-4-fluorophenyl-amino)-6,8-difluoroimidazo[1,2-a]pyridine]",0.01 to 1 µM,1 to 10 µM
"COc1cc(C)c(-c2nc3cccc(N)n3c2Nc2c(C)cccc2C)c(OCC(N)=O)c1 [Compound A207, 2-[2-(Aminocarbonylmethoxy)-4-methoxy-6-methylphenyl]-3-(2,6-dimethylphenylamino)-5-aminoimidazo[1,2-a]pyridine]",0.01 to 1 µM,> 10 µM
